# Patent US9169254B2, “Spiroimidazolone derivative” (Chugai Seiyaku Kabushiki Kaisha, priority 2009, dated 2015)
# Target: T1, human PTH1 receptor (Homo sapiens, UniProt Q03431)
# T1 sequence (Q03431 27-593): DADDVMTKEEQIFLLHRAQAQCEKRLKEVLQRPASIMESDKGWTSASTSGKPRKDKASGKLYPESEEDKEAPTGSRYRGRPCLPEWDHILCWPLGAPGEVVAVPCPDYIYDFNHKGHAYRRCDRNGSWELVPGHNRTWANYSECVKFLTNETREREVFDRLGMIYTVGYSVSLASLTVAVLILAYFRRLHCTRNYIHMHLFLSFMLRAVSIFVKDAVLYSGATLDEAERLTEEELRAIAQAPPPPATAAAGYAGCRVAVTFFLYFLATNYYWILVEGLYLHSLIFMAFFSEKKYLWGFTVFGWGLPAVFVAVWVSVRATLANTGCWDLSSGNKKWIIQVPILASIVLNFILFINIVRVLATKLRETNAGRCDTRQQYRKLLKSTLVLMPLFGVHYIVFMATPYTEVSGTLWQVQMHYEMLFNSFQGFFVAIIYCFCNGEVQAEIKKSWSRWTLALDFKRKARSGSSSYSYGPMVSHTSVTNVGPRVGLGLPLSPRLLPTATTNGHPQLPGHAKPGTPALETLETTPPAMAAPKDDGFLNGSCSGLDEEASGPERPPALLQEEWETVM
# Assay: In vitro cAMP signal activity in HKRK-B7 cells (LLC-PK1 cells overexpressing the human PTH1 receptor)
# Type: cell-based
# Settings: HKRK-B7 cells; compound at 1×10^−3 M; cAMP produced as percentage of that produced by hPTH(1-34) at 100 nM
row,SMILES,cAMP production activity (%)
1,"Cc1cc(C(=O)N2CCC(O)(CF)CC2)cc(C)c1/C=C/S(=O)(=O)N1CCC2(CC1)N=C(c1ccc(Cl)c(Cl)c1)NC2=O [Compound 1257, 2-(3,4-dichloro-phenyl)-8-{(E)-2-[4-(4-fluoromethyl-4-hydroxy-piperidine-1-carbonyl)-2,6-dimethyl-phenyl]-ethenesulfonyl}-1,3,8-triaza-spiro[4.5]dec-1-en-4-one]",98
2,"Cc1cc(C2=NC3(CCN(S(=O)(=O)/C=C/c4c(C)cc(C(=O)N5CCC(O)(CF)CC5)cc4C)CC3)C(=O)N2)ccc1OC(F)(F)F [Compound 1258, 8-{(E)-2-[4-(4-fluoromethyl-4-hydroxy-piperidine-1-carbonyl)-2,6-dimethyl-phenyl]-ethenesulfonyl}-2-(3-methyl-4-trifluoromethoxy-phenyl)-1,3,8-triaza-spiro[4.5]dec-1-en-4-one]",116
3,"Cc1cc(C(F)(F)F)ccc1C1=NC2(CCN(S(=O)(=O)/C=C/c3c(C)cc(C(=O)N4CCC(O)(CF)CC4)cc3C)CC2)C(=O)N1 [Compound 1259, 8-{(E)-2-[4-(4-fluoromethyl-4-hydroxy-piperidine-1-carbonyl)-2,6-dimethyl-phenyl]-ethenesulfonyl}-2-(2-methyl-4-trifluoromethyl-phenyl)-1,3,8-triaza-spiro[4.5]dec-1-en-4-one]",101
4,"Cc1cc(C(=O)N2CCC(O)(CF)CC2)cc(C)c1/C=C/S(=O)(=O)N1CCC2(CC1)N=C(c1ccc(OCC(F)(F)F)c(F)c1)NC2=O [Compound 1260, 8-{(E)-2-[4-(4-fluoromethyl-4-hydroxy-piperidine-1-carbonyl)-2,6-dimethyl-phenyl]-ethenesulfonyl}-2-[3-fluoro-4-(2,2,2-trifluoro-ethoxy)-phenyl]-1,3,8-triaza-spiro[4.5]dec-1-en-4-one]",81
5,"[2H]C([2H])([2H])C([2H])([2H])C([2H])([2H])C([2H])([2H])Oc1ccc(C2=NC3(CCN(S(=O)(=O)/C=C/c4c(C)cc(C(=O)N5CCC(O)(CF)CC5)cc4C)CC3)C(=O)N2)cc1C(F)(F)F [Compound 1261, 2-(4-[1,1,2,2,3,3,4,4,4-^2H9]butoxy-3-trifluoromethyl-phenyl)-8-{(E)-2-[4-(4-fluoromethyl-4-hydroxy-piperidine-1-carbonyl)-2,6-dimethyl-phenyl]-ethenesulfonyl}-1,3,8-triaza-spiro[4.5]dec-1-en-4-one]",99
6,"[2H]C([2H])([2H])C([2H])(Oc1ccc(C2=NC3(CCN(S(=O)(=O)/C=C/c4c(C)cc(C(=O)N5CCC(O)(CF)CC5)cc4C)CC3)C(=O)N2)cc1C(F)(F)F)C([2H])([2H])[2H] [Compound 1262, 8-{(E)-2-[4-(4-fluoromethyl-4-hydroxy-piperidine-1-carbonyl)-2,6-dimethyl-phenyl]-ethenesulfonyl}-2-(4-[1,2,2,2,2,2,2-^2H7]isopropoxy-3-trifluoromethyl-phenyl)-1,3,8-triaza-spiro[4.5]dec-1-en-4-one]",90
7,"Cc1cc(C(=O)N2CCC(O)(CF)CC2)cc(C)c1/C=C/S(=O)(=O)N1CCC2(CC1)N=C(c1ccc(F)c(OCCCC(F)(F)C(F)(F)F)c1)NC2=O [Compound 1263, 8-{(E)-2-[4-(4-fluoromethyl-4-hydroxy-piperidine-1-carbonyl)-2,6-dimethyl-phenyl]-ethenesulfonyl}-2-[4-fluoro-3-(4,4,5,5,5-pentafluoro-pentyloxy)-phenyl]-1,3,8-triaza-spiro[4.5]dec-1-en-4-one]",73
8,"Cc1cc(C(=O)N2CCC(O)(CF)CC2)cc(C)c1/C=C/S(=O)(=O)N1CCC2(CC1)N=C(c1ccc(F)c(OCCCF)c1)NC2=O [Compound 1264, 2-[4-fluoro-3-(3-fluoro-propoxy)-phenyl]-8-{(E)-2-[4-(4-fluoromethyl-4-hydroxy-piperidine-1-carbonyl)-2,6-dimethyl-phenyl]-ethenesulfonyl}-1,3,8-triaza-spiro[4.5]dec-1-en-4-one]",77
9,"Cc1cc(C(=O)N2CCC(O)(CF)CC2)cc(C)c1/C=C/S(=O)(=O)N1CCC2(CC1)N=C(c1ccc(OC(C)(C)C(F)(F)F)c(C(F)(F)F)c1)NC2=O [Compound 1265, 8-{(E)-2-[4-(4-fluoromethyl-4-hydroxy-piperidine-1-carbonyl)-2,6-dimethyl-phenyl]-ethenesulfonyl}-2-[4-(2,2,2-trifluoro-1,1-dimethyl-ethoxy)-3-trifluoromethyl-phenyl]-1,3,8-triaza-spiro[4.5]dec-1-en-4-one]",89
10,"Cc1cc(C(=O)N2CCC(O)(CF)CC2)cc(C)c1/C=C/S(=O)(=O)N1CCC2(CC1)N=C(c1ccc(C(F)(F)F)c(OC(C)(C)C(F)(F)F)c1)NC2=O [Compound 1266, 8-{(E)-2-[4-(4-fluoromethyl-4-hydroxy-piperidine-1-carbonyl)-2,6-dimethyl-phenyl]-ethenesulfonyl}-2-[3-(2,2,2-trifluoro-1,1-dimethyl-ethoxy)-4-trifluoromethyl-phenyl]-1,3,8-triaza-spiro[4.5]dec-1-en-4-one]",96
11,"Cc1cc(C(=O)N2CCC(O)(CF)CC2)cc(C)c1/C=C/S(=O)(=O)N1CCC2(CC1)N=C(c1cccc(C(C)(F)F)c1)NC2=O [Compound 1267, 2-[3-(1,1-difluoro-ethyl)-phenyl]-8-{(E)-2-[4-(4-fluoromethyl-4-hydroxy-piperidine-1-carbonyl)-2,6-dimethyl-phenyl]-ethenesulfonyl}-1,3,8-triaza-spiro[4.5]dec-1-en-4-one]",74
12,"Cc1cc(C(=O)N2CCC(O)(CF)CC2)cc(C)c1/C=C/S(=O)(=O)N1CCC2(CC1)N=C(c1ccc3cc[nH]c3c1)NC2=O [Compound 1268, 8-{(E)-2-[4-(4-fluoromethyl-4-hydroxy-piperidine-1-carbonyl)-2,6-dimethyl-phenyl]-ethenesulfonyl}-2-(1H-indol-6-yl)-1,3,8-triaza-spiro[4.5]dec-1-en-4-one]",33
13,"Cc1cc(C(=O)N2CCC(O)(CF)CC2)cc(C)c1/C=C/S(=O)(=O)N1CCC2(CC1)N=C(c1ccc(OC(F)(F)F)cc1)NC2=O [Compound 1269, 8-{(E)-2-[4-(4-fluoromethyl-4-hydroxy-piperidine-1-carbonyl)-2,6-dimethyl-phenyl]-ethenesulfonyl}-2-(4-trifluoromethoxy-phenyl)-1,3,8-triaza-spiro[4.5]dec-1-en-4-one]",92
14,"Cc1cc(C(=O)N2CCC(O)(CF)CC2)cc(C)c1/C=C/S(=O)(=O)N1CCC2(CC1)N=C(c1ccc(Cl)c(OCC(F)(F)C(F)(F)F)c1)NC2=O [Compound 1270, 2-[4-chloro-3-(2,2,3,3,3-pentafluoro-propoxy)-phenyl]-8-{(E)-2-[4-(4-fluoromethyl-4-hydroxy-piperidine-1-carbonyl)-2,6-dimethyl-phenyl]-ethenesulfonyl}-1,3,8-triaza-spiro[4.5]dec-1-en-4-one]",61
15,"Cc1cc(C(=O)N2CCC(O)(CF)CC2)cc(C)c1/C=C/S(=O)(=O)N1CCC2(CC1)N=C(c1ccc(Cl)c(OC(C)(C)C(F)(F)F)c1)NC2=O [Compound 1271, 2-[4-chloro-3-(2,2,2-trifluoro-1,1-dimethyl-ethoxy)-phenyl]-8-{(E)-2-[4-(4-fluoromethyl-4-hydroxy-piperidine-1-carbonyl)-2,6-dimethyl-phenyl]-ethenesulfonyl}-1,3,8-triaza-spiro[4.5]dec-1-en-4-one]",92
